system: Mus musculus; assay: Antiinflammatory activity in ICR mouse assessed as inhibition of xylene-induced ear edema at 10 umol/kg, po administered 30 mins before xylene challenge relative to control; assay type: functional

**Q.** How did the inhibition in vivo at 10 µmol/kg turn out when `C[C@H](N)C(=O)N1Cc2[nH]c3ccccc3c2C[C@H]1C(=O)N[C@H]1C(O)O[C@H](CO)[C@@H](O)[C@@H]1O` (mixture of isomers) was run?
**A.** 66%

**Q.** How did the inhibition in vivo at 10 µmol/kg turn out when `CC(=O)OC[C@H]1O[C@@H](OC(C)=O)[C@H](NC(=O)[C@@H]2Cc3c([nH]c4ccccc34)CN2C(=O)CNC(=O)OC(C)(C)C)[C@@H](OC(C)=O)[C@@H]1OC(C)=O` was run?
**A.** 58.6%

**Q.** Which inhibition in vivo at 10 µmol/kg does the source give for `CC(=O)OC[C@H]1O[C@@H](OC(C)=O)[C@H](NC(=O)[C@@H]2Cc3c([nH]c4ccccc34)CN2C(=O)[C@H](C)NC(=O)OC(C)(C)C)[C@@H](OC(C)=O)[C@@H]1OC(C)=O` here?
**A.** 82%

**Q.** Which inhibition in vivo at 10 µmol/kg does the source give for `C[C@H](NC(=O)OC(C)(C)C)C(=O)N1Cc2[nH]c3ccccc3c2C[C@H]1C(=O)N[C@H]1C(O)O[C@H](CO)[C@@H](O)[C@@H]1O` (mixture of isomers) here?
**A.** 51.9%

**Q.** How did the inhibition in vivo at 10 µmol/kg turn out when `CC(=O)OC[C@H]1O[C@@H](OC(C)=O)[C@H](NC(=O)[C@@H]2Cc3c([nH]c4ccccc34)CN2C(=O)OC(C)(C)C)[C@@H](OC(C)=O)[C@@H]1OC(C)=O` was run?
**A.** 71.2%

system: Mus musculus; assay: Antiinflammatory activity in ICR mouse assessed as inhibition of xylene-induced ear edema at 100 mg/kg, po administered 30 mins before xylene challenge relative to control; assay type: functional

**Q.** How did the inhibition in vivo at 100 mg/kg turn out when `CC(=O)Oc1ccccc1C(=O)O` [ASPIRIN] was run?
**A.** 89.5%

— ChEMBL document CHEMBL2029311, “Design, synthesis, and evaluation of a novel class of 2,3-disubstituted-tetrahydro-β-carboline derivatives” (2012)
